Measurements from patent publication US20140350014A1, “COMPOUNDS FOR INHIBITING THE INTERACTION OF BCL2 WITH BINDING PARTNERS” (NOVARTIS AG, priority 2011, published 2014).

Experiments:
[1] = target: BCL-2 binding to BAD peptide (Homo sapiens, UniProt P10415); assay: BCL2 SPR solution inhibition assay, BAD peptide surface (Biacore A100); settings: read-out: BCL2_SPR IC50 BAD
Text: (§1) 33The present method includes utility of a Surface plasmon resonance (SPR)-based biosensor (Bia34core™′ GE Healthcare, Uppsala, Sweden) to characterize BCL-2 inhibitors. 35
(§2) 36Biacore™ utilizes the phenomenon of surface plasmon resonance (SPR) to detect and measure 37binding interactions. In a typical Biacore experiment, one of the interacting molecules (ligand) is i38mmobilized on a flexible dextran matrix while the interacting partner (analyte) is allowed to fl39ow across that surface. A binding interaction results in an increase in mass on the sensor surface 40and a corresponding direct change in the refractive index of the medium in the vicinity of the 41sensor surface. Changes in refractive index or signal are recorded in resonance units (R.U.) Signal 42changes due to association and dissociation of complexes are monitored in a non-invasive manne43r, continuously and in real-time, the results of which are reported in the form of a sensorgram.44
(§3) The SPR assay is con45figured to examine solution inhibition of BCL-2 binding to peptide derivatized sensor surfa46ces to generate IC50 values as a measure of inhibitor potency.
(§4) Biacore™ A100 (GE Healthcare, Uppsala, Sweden) was used to conduct all experiments reported herein. Sensor surface preparation and all interaction analyses experiments were performed at 25° C. Reagents were purchased from GE Healthcare. Running buffer containing 10 mM Hepes, pH7.4, 150 mM sodium chloride, 1.25 mM Dithiothreitol, 3% Dimethyl sulfoxide and 0.05% polysorbate 20 were utilized throughout all analyses.
(§5) Biotinylated BAK, BAD and NOXA peptides were diluted to 10 nM in running buffer and captured onto a sensor surface pre-derivatized with streptavidin (sensor chip SA) to peptide surface densities in the range 50-100 R.U. Peptide captured surfaces were blocked with 500 μM PEO2-Biotin.
(§6) Interaction analyses were performed by first equilibrating each sample within a 6 point three fold compound dilution series in the range 16 μM to […] with 56 nM BCL-2 for one hour during instrument start-up procedures. Protein compound mixtures were then injected over each peptide surface in parallel for 60 seconds at a flow-rate of 30 μL/min. 56 nM BCL-2 control samples were also prepared and run at regular intervals during the assay. Surface regeneration was performed at the end of each analysis cycle by two 30 second injections of 10 mM Glycine, pH 2.5, 1M Sodium Chloride, 0.05% polysorbate 20. Samples and control compound samples were run in duplicate and controls are also run at regular intervals during the assay to monitor surface and assay performance.
(§7) Data analyses are carried out using Biacore™ A100 evaluation software v1.1 to validate assay quality. Binding level report points were used relative to BCL-2 control samples to calculate % inhibition values for each compound protein mixture. […] The range of data shown in table 1 represents the high and low IC50 values obtained from multiple experiments.

[2] = target: BCL-2 binding to BAK peptide (Homo sapiens, UniProt P10415); assay: BCL2 SPR solution inhibition assay, BAK peptide surface (Biacore A100); settings: read-out: BCL2_SPR IC50 BAK
Sequence of BCL-2 binding to BAK peptide (P10415 whole entry): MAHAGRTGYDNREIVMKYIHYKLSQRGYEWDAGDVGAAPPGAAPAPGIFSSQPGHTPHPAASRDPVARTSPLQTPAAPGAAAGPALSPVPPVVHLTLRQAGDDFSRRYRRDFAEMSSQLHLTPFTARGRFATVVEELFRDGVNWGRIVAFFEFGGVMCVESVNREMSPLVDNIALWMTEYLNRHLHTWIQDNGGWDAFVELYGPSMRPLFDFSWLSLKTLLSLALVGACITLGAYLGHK
Text: as §1, §2, §3, §4, §5, §6, §7

Sequence of BCL-2 binding to BAD peptide (P10415 whole entry): as above

Row | IC50 [1] | IC50 [2] | Structure (SMILES)
1 | 608 to 612 nM | 432 to 458 nM | CCCCN(CCCC)C(=O)c1cc(C)n(-c2ccc(-c3ccc(S(C)(=O)=O)cc3)cc2C(=O)N2Cc3ccccc3C[C@H]2CO)n1 [Example 60]
2 | 2070 to 2140 nM | 1710 to 1850 nM | CCCCN(CCCC)C(=O)c1cc(C)n(-c2ccc(-c3ccc(Cl)cc3)cc2C(=O)N2Cc3ccccc3C[C@H]2CO)n1 [Example 63]
3 | 823 to 857 nM | 785 to 804 nM | CCCCN(CCCC)C(=O)c1cc(C)n(-c2ccc(-c3ccc4ccccc4c3)cc2C(=O)N2Cc3ccccc3C[C@H]2CO)n1 [Example 67]
4 | 1160 to 1210 nM | 1050 to 1100 nM | CCCCN(CCCC)C(=O)c1cc(C)n(-c2ccc(-c3ccc(N(C)C)cc3)cc2C(=O)N2Cc3ccccc3C[C@H]2CO)n1 [Example 68]
5 | 5450 to 5510 nM | 4420 to 4570 nM | CCCCN(CCCC)C(=O)c1cc(C)n(-c2ccc(-c3c(-c4ccccc4)noc3C)cc2C(=O)N2Cc3ccccc3C[C@H]2CO)n1 [Example 69]

More lines, now with the values behind:

Row | Structure (SMILES) | IC50 [1] | IC50 [2]
6 | CCCCN(CCCC)C(=O)c1cc(C)n(-c2ccc(-c3cc(F)cc(C(=O)NC)c3)cc2C(=O)N2Cc3ccccc3C[C@H]2CO)n1 [Example 61] | 458 to 474 nM | 331 to 344 nM
7 | CCCCN(CCCC)C(=O)c1cc(C)n(-c2ccc(-c3cccc(-c4nnc(C)o4)c3)cc2C(=O)N2Cc3ccccc3C[C@H]2CO)n1 [Example 62] | 543 to 551 nM | 763 to 799 nM
8 | CCCCN(CCCC)C(=O)c1cc(C)n(-c2ccc(-c3ccc(F)cc3Cl)cc2C(=O)N2Cc3ccccc3C[C@H]2CO)n1 [Example 64] | 4460 to 4810 nM | 3380 to 4000 nM
9 | CCCCN(CCCC)C(=O)c1cc(C)n(-c2ccc(-c3c(OC)cccc3OC)cc2C(=O)N2Cc3ccccc3C[C@H]2CO)n1 [Example 65] | 10600 to 12300 nM | 6340 to 6900 nM
10 | CCCCN(CCCC)C(=O)c1cc(C)n(-c2ccc(-c3cc(C)cc(F)c3)cc2C(=O)N2Cc3ccccc3C[C@H]2CO)n1 [Example 66] | 998 to 1060 nM | 936 to 976 nM
